Data on one compound can be found in patent US20030190368A1, “METHODS OF DIAGNOSIS AND TRIAGE USING CELL ACTIVATION MEASURES” (priority 1998, published 2003).

In one data set the test system is human neutrophils. The data set can be described thus: Neutrophil response to fluid shear-stress in vitro. The class given is cell-based. How it is done:
In these experiments the shear-stress was kept sufficiently low (˜1 dyn/cm2) to avoid significant viscoelastic cell deformation. Fresh leukocytes from pin-pricked blood of healthy volunteers were collected in Vacutainer tubes (sodium heparin pre-treated, Becton Dickinson, Franklin Lakes, N.J.). The red blood cells were allowed to sediment at room temperature for about 30 minutes. The supernatant mixture of 1 part platelets and leukocytes was resuspended in 20 parts Plasma Lyte (Baxter Healthcare Corp., Deerfield, Ill.). Neutrophils, monocytes and lymphocytes were identified by their morphology (125× magnification). All experiments were performed within four hours following blood collection.
100 μl of the cell preparation was deposited into a small chamber with a transparent bottom on an inverted microscope (Leitz Diavert, Germany) with a 50× objective. […]
Filmed neutrophils presented various responses to shear-stress. In order to quantify the results neutrophil response was divided into three categories: […]

The test system of the next data set is rats. The data set can be described thus: Bolus injection of pancreatic homogenate (mock SAO shock). It counts as in vivo. The procedure:
A bolus injection of incubated pancreatic homogenate was tested for its ability to lead to circulatory shock in the rat. The ability of Futhan pretreatment to mitigate shock induced in this manner was also tested. A mock SAO shock protocol was repeated as previously described, with either 60 min Futhan or saline pretreatment and a 2 ml bolus injection of either pancreatic homogenate or low-molecular weight pancreatic homogenate injected in lieu of arterial clamping.
The SAO shock experiments were repeated with the bolus injection of pancreatic homogenate in an effort to simulate the “unclamping” of the arteries and liberation of pancreatic components into the circulation instead of the actual ischemia/reperfusion of the splanchnic region. The low-molecular weight (2 ml) as well whole homogenate (2 ml) were tested for their ability to induce hypotension and cause circulatory shock. The ability of Futhan to counter the effects of the injection of pancreatic homogenate was also tested as in the SAO shock protocol. At the termination of these experiments arterial blood was drawn for the determination of plasma peroxide concentration using the peroxide electrode measurement technique.

On to `CS(=O)(=O)O.CS(=O)(=O)O.N=C(N)Nc1ccc(C(=O)Oc2ccc3cc(C(=N)N)ccc3c2)cc1` [Futhan, 6-amidino-2-naphthyl p-guanidinobenzoate dimethanesulfonate], for which, in the data set with human neutrophils (10 μl Futhan 0.05 and 0.13 mg/ml in 5% glucose + 10 μl pig pancreatic homogenate + 80 μl cells), the “effect of Futhan on neutrophil activation in shear-stress test” value is on record as “slightly pro-inflammatory effect”. For the same compound, the “complete response to shear stress of Futhan-treated neutrophils” value in the data set on human neutrophils (Futhan 0.05 and 0.13 mg/ml + pig pancreatic homogenate) is given as “no Futhan-treated neutrophil exhibited a complete response”. Moreover, in the data set on rats (60 minute post-injection observation period, Futhan 3.3 mg/kg body wt/hr), the “mortality after pancreatic homogenate injection in Futhan-pretreated rats” value is given as “None of the Futhan-treated group died”. Moreover, the “MAP after pancreatic homogenate injection in Futhan-pretreated rats” value with rats (Futhan 3.3 mg/kg body wt/hr) was “MAP returned to nearly initial values”. Besides, in the data set with rats (infusion pump 3.3 mg/kg body wt/hr), the “blood pressure effect of Futhan infusion pretreatment” value is “depression of MAP”.
